Data published in ChEMBL document CHEMBL1201862, “PubChem BioAssay data set” (2004).
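Compound exposure: 48 hours, 5 concentrations, 96-well plates. GI50 is the concentration that inhibits growth by half.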 Activity calls are given as the source filed them. Rule as the data show it: active = GI50 up to about 1.1 µM and inactive = higher.

Assays:
Experiment in all cases: NCI-60 cell line screen, 48 h
ACHN = tested on: ACHN
HOP-62 = tested on: HOP-62
M14 = tested on: M14
MCF7 = tested on: MCF7
MDA-N = tested on: MDA-N
NCI/ADR-RES = tested on: NCI/ADR-RES
OVCAR-4 = tested on: OVCAR-4
PC-3 = tested on: PC-3
RPMI-8226 = tested on: RPMI-8226
SF-268 = tested on: SF-268
SK-MEL-28 = tested on: SK-MEL-28
SNB-19 = tested on: SNB-19
SR = tested on: SR
UO-31 = tested on: UO-31
CAKI-1 = tested on: CAKI-1
HCC 2998 = tested on: HCC 2998
OVCAR-3 = tested on: OVCAR-3
SF-539 = tested on: SF-539
SK-OV-3 = tested on: SK-OV-3

## COc1ccc(C(CC(=O)c2ccc(O)cc2)C(C(=O)c2ccc(O)cc2)C(c2ccc(OC)cc2)C2C(=O)NC(=S)NC2=O)cc1 (centres undefined)
ACHN
  GI50: 19.7 µM (inactive)
HOP-62
  GI50: 26.1 µM (inactive)
M14
  GI50: 20.8 µM (inactive)
MCF7
  GI50: 14.5 µM (inactive)
MDA-N
  GI50: 18.8 µM (inactive)
NCI/ADR-RES
  GI50: 17.9 µM (inactive)
OVCAR-4
  GI50: 18.8 µM (inactive)
PC-3
  GI50: 21.8 µM (inactive)
RPMI-8226
  GI50: 22.6 µM (inactive)
SF-268
  GI50: 15.7 µM (inactive)
SK-MEL-28
  GI50: 16.2 µM (inactive)
SNB-19
  GI50: 21.8 µM (inactive)
SR
  GI50: 38 µM (inactive)
UO-31
  GI50: 17.5 µM (inactive)

## CC(N/N=C(\S)N1CCN(c2ccccn2)CC1)c1cccc[n+]1[O-] (centres undefined)
ACHN
  GI50: 6.01 µM (inactive)
CAKI-1
  GI50: 14.2 µM (inactive)
HCC 2998
  GI50: 21.1 µM (inactive)
HOP-62
  GI50: 67.3 µM (inactive)
M14
  GI50: 28.3 µM (inactive)
MCF7
  GI50: 13.2 µM (inactive)
MDA-N
  GI50: 18.4 µM (inactive)
NCI/ADR-RES
  GI50: 2.9 µM (inactive)
OVCAR-3
  GI50: 4.9 µM (inactive)
OVCAR-4
  GI50: 14 µM (inactive)
PC-3
  GI50: 15.3 µM (inactive)
SF-268
  GI50: 22.8 µM (inactive)
SF-539
  GI50: 17.4 µM (inactive)
SK-MEL-28
  GI50: 16.8 µM (inactive)
SNB-19
  GI50: 32.9 µM (inactive)
SR
  GI50: 4.58 µM (inactive)
UO-31
  GI50: 8.13 µM (inactive)

## CCSCC(=O)N1CCc2c([nH]c3ccccc23)C1=O
ACHN
  GI50: > 100 µM (inactive)
CAKI-1
  GI50: > 100 µM (inactive)
HCC 2998
  GI50: > 100 µM (inactive)
HOP-62
  GI50: > 100 µM (inactive)
M14
  GI50: > 100 µM (inactive)
MCF7
  GI50: 96.6 µM (inactive)
MDA-N
  GI50: > 100 µM (inactive)
NCI/ADR-RES
  GI50: > 100 µM (inactive)
OVCAR-3
  GI50: > 100 µM (inactive)
OVCAR-4
  GI50: > 100 µM (inactive)
PC-3
  GI50: > 100 µM (inactive)
SF-268
  GI50: > 100 µM (inactive)
SF-539
  GI50: > 100 µM (inactive)
SK-MEL-28
  GI50: > 100 µM (inactive)
SK-OV-3
  GI50: > 100 µM (inactive)
SNB-19
  GI50: > 100 µM (inactive)
SR
  GI50: > 100 µM (inactive)
UO-31
  GI50: > 100 µM (inactive)

## O=CN1CCN(C(=O)c2ccc(Cl)cc2Cl)C1=S
ACHN
  GI50: > 100 µM (inactive)
CAKI-1
  GI50: 41.1 µM (inactive)
HCC 2998
  GI50: > 100 µM (inactive)
HOP-62
  GI50: > 100 µM (inactive)
M14
  GI50: > 100 µM (inactive)
MCF7
  GI50: 34.6 µM (inactive)
MDA-N
  GI50: 64.6 µM (inactive)
NCI/ADR-RES
  GI50: > 100 µM (inactive)
OVCAR-3
  GI50: 40.3 µM (inactive)
OVCAR-4
  GI50: > 100 µM (inactive)
PC-3
  GI50: > 100 µM (inactive)
RPMI-8226
  GI50: 20.5 µM (inactive)
SF-268
  GI50: 26.1 µM (inactive)
SF-539
  GI50: > 100 µM (inactive)
SK-MEL-28
  GI50: > 100 µM (inactive)
SK-OV-3
  GI50: > 100 µM (inactive)
SNB-19
  GI50: > 100 µM (inactive)

## c1ccc2c(c1)Oc1cccc3cccc-2c13
ACHN
  GI50: > 100 µM (inactive)
CAKI-1
  GI50: > 100 µM (inactive)
HCC 2998
  GI50: > 100 µM (inactive)
HOP-62
  GI50: > 100 µM (inactive)
M14
  GI50: > 100 µM (inactive)
MCF7
  GI50: > 100 µM (inactive)
MDA-N
  GI50: > 100 µM (inactive)
NCI/ADR-RES
  GI50: > 100 µM (inactive)
OVCAR-3
  GI50: 42.3 µM (inactive)
OVCAR-4
  GI50: > 100 µM (inactive)
PC-3
  GI50: > 100 µM (inactive)
RPMI-8226
  GI50: > 100 µM (inactive)
SF-268
  GI50: > 100 µM (inactive)
SF-539
  GI50: > 100 µM (inactive)
SK-MEL-28
  GI50: > 100 µM (inactive)
SK-OV-3
  GI50: > 100 µM (inactive)
SNB-19
  GI50: > 100 µM (inactive)
UO-31
  GI50: > 100 µM (inactive)

## COc1cc(Cc2cc3c(c(C(=O)O)c2Br)OCO3)cc(OC)c1OC
ACHN
  GI50: > 100 µM (inactive)
CAKI-1
  GI50: > 100 µM (inactive)
HCC 2998
  GI50: > 100 µM (inactive)
HOP-62
  GI50: > 100 µM (inactive)
M14
  GI50: 70.8 µM (inactive)
MCF7
  GI50: 62.1 µM (inactive)
MDA-N
  GI50: 23.8 µM (inactive)
NCI/ADR-RES
  GI50: 85.3 µM (inactive)
OVCAR-3
  GI50: > 100 µM (inactive)
OVCAR-4
  GI50: > 100 µM (inactive)
PC-3
  GI50: > 100 µM (inactive)
SF-539
  GI50: 29.6 µM (inactive)
SK-MEL-28
  GI50: > 100 µM (inactive)
SK-OV-3
  GI50: > 100 µM (inactive)
SNB-19
  GI50: > 100 µM (inactive)
SR
  GI50: 52.6 µM (inactive)
UO-31
  GI50: > 100 µM (inactive)

## COc1ccc(OC)c2c(=O)cc(-c3ccccc3)[nH]c12
ACHN
  GI50: > 100 µM (inactive)
HCC 2998
  GI50: > 100 µM (inactive)
HOP-62
  GI50: > 100 µM (inactive)
M14
  GI50: > 100 µM (inactive)
MCF7
  GI50: > 100 µM (inactive)
MDA-N
  GI50: > 100 µM (inactive)
NCI/ADR-RES
  GI50: > 100 µM (inactive)
OVCAR-3
  GI50: > 100 µM (inactive)
OVCAR-4
  GI50: > 100 µM (inactive)
PC-3
  GI50: > 100 µM (inactive)
RPMI-8226
  GI50: > 100 µM (inactive)
SF-268
  GI50: > 100 µM (inactive)
SK-MEL-28
  GI50: > 100 µM (inactive)
SK-OV-3
  GI50: > 100 µM (inactive)
SNB-19
  GI50: > 100 µM (inactive)
SR
  GI50: > 100 µM (inactive)
UO-31
  GI50: > 100 µM (inactive)

## Oc1cccc2cc(Cl)cnc12
ACHN
  GI50: 8.95 µM (inactive)
CAKI-1
  GI50: 55.1 µM (inactive)
HCC 2998
  GI50: 27.1 µM (inactive)
HOP-62
  GI50: 5.77 µM (inactive)
M14
  GI50: 9.06 µM (inactive)
MCF7
  GI50: 3.4 µM (inactive)
MDA-N
  GI50: 31.9 µM (inactive)
NCI/ADR-RES
  GI50: 3.48 µM (inactive)
OVCAR-3
  GI50: 2.99 µM (inactive)
OVCAR-4
  GI50: 3.38 µM (inactive)
PC-3
  GI50: 10.6 µM (inactive)
RPMI-8226
  GI50: 4.91 µM (inactive)
SF-268
  GI50: 3.85 µM (inactive)
SF-539
  GI50: 10.3 µM (inactive)
SK-MEL-28
  GI50: 58.7 µM (inactive)
SK-OV-3
  GI50: 50.4 µM (inactive)
SNB-19
  GI50: > 32.4 µM (inactive)
UO-31
  GI50: 8.09 µM (inactive)

## COC(C)(C)C(O)C(O)C[C@H](C)C1CC=C2C1(C)CCC1[C@@]3(C)CCC(OC(C)=O)C(C)(C)C3CC(OC3OC(COC(C)=O)C(O)C(O)C3O)[C@@]21C (some centres undefined)
ACHN
  GI50: 3.87 µM (inactive)
CAKI-1
  GI50: > 10 µM (inactive)
HCC 2998
  GI50: 2.14 µM (inactive)
HOP-62
  GI50: 3.98 µM (inactive)
M14
  GI50: 3.15 µM (inactive)
MCF7
  GI50: 3.33 µM (inactive)
MDA-N
  GI50: 3.01 µM (inactive)
NCI/ADR-RES
  GI50: > 10 µM (inactive)
OVCAR-3
  GI50: 2.94 µM (inactive)
OVCAR-4
  GI50: 5.86 µM (inactive)
PC-3
  GI50: 3.48 µM (inactive)
RPMI-8226
  GI50: 2.07 µM (inactive)
SF-268
  GI50: 6.05 µM (inactive)
SF-539
  GI50: 2.83 µM (inactive)
SK-MEL-28
  GI50: 4.57 µM (inactive)
SK-OV-3
  GI50: > 10 µM (inactive)
SNB-19
  GI50: 5.01 µM (inactive)
UO-31
  GI50: 0.287 µM (active)

## CCC(=O)N/S(=N/S(=O)(=O)c1ccccc1)C(Cl)(Cl)Cl (centres undefined)
ACHN
  GI50: > 100 µM (inactive)
HCC 2998
  GI50: > 100 µM (inactive)
HOP-62
  GI50: > 100 µM (inactive)
M14
  GI50: > 100 µM (inactive)
MCF7
  GI50: > 100 µM (inactive)
MDA-N
  GI50: > 100 µM (inactive)
NCI/ADR-RES
  GI50: > 100 µM (inactive)
OVCAR-3
  GI50: > 100 µM (inactive)
OVCAR-4
  GI50: > 100 µM (inactive)
PC-3
  GI50: > 100 µM (inactive)
RPMI-8226
  GI50: > 100 µM (inactive)
SF-268
  GI50: > 100 µM (inactive)
SF-539
  GI50: > 100 µM (inactive)
SK-MEL-28
  GI50: > 100 µM (inactive)
SK-OV-3
  GI50: > 100 µM (inactive)
SNB-19
  GI50: > 100 µM (inactive)
SR
  GI50: > 100 µM (inactive)
UO-31
  GI50: > 100 µM (inactive)

## Cc1nc2ccccc2n1Cc1nnc(N)o1
ACHN
  GI50: > 100 µM (inactive)
HCC 2998
  GI50: > 100 µM (inactive)
HOP-62
  GI50: > 100 µM (inactive)
M14
  GI50: > 100 µM (inactive)
MCF7
  GI50: > 100 µM (inactive)
MDA-N
  GI50: > 100 µM (inactive)
NCI/ADR-RES
  GI50: > 100 µM (inactive)
OVCAR-3
  GI50: > 100 µM (inactive)
PC-3
  GI50: > 100 µM (inactive)
RPMI-8226
  GI50: > 100 µM (inactive)
SF-268
  GI50: > 100 µM (inactive)
SF-539
  GI50: > 100 µM (inactive)
SK-MEL-28
  GI50: > 100 µM (inactive)
SK-OV-3
  GI50: > 100 µM (inactive)
SNB-19
  GI50: > 100 µM (inactive)
SR
  GI50: > 100 µM (inactive)
UO-31
  GI50: > 100 µM (inactive)
